Reference: patent US20250262211A1, “COMBINATION OF RAS INHIBITORS AND […] INHIBITORS FOR THE TREATMENT OF CANCERS” (INSTITUT NATIONAL DE LA SANTÉ ET DE LA RECHERCHE MÉDICALE, priority 2022, published 2025)

Assays:
Format in all cases: cell-based
[1] = test system: H23 KRAS (G12C)-mutant non-small cell lung cancer (NSCLC) cell line; assay: FUCCI-transduced H23 cells, response/relapse monitored by Incucyte during 50 days; conditions: H23, 50 days
[2] = test system: Calu-1 KRAS (G12C)-mutant non-small cell lung cancer (NSCLC) cell line; assay: FUCCI-transduced Calu-1 cells, response/relapse monitored by Incucyte during 50 days; conditions: Calu-1, 50 days
[3] = test system: H23 cells (KRas G12C); assay: Cell confluency of H23 cells under treatment, Incucyte Live-Cell Analysis / amidoblack staining; conditions: drug used alone, 1 μM, 35 days
Experimental: FIG. 1. […] A. Cell confluency was measured twice a week over 35 days of indicated treatments. B. Amidoblack staining of a 6-well plate after 35 of indicated treatments.
Medium was changed twice a week and cell confluency was monitored by Incucyte® Live-Cell Analysis System.

[4] = 1 μM tipifarnib added to 1 μM sotorasib

| Compound | emergence of resistant proliferative clones (total cell number) ([1]; 1 μM sotorasib alone) | emergence of resistant proliferative clones (total cell number) ([2]; 1 μM sotorasib alone) | anti-tumor effect (cell confluency) [3] | cell cycle dynamics [1, 4] | emergence of resistant proliferative clones (total cell number) [1, 4] | cell cycle dynamics [2, 4] | emergence of resistant proliferative clones (total cell number) [2, 4] |
| --- | --- | --- | --- | --- | --- | --- | --- |
| C=CC(=O)N1CCN(c2nc(=O)n(-c3c(C)ccnc3C(C)C)c3nc(-c4c(O)cccc4F)c(F)cc23)[C@@H](C)C1 [sotorasib, 6-fluoro-7-(2-fluoro-6-hydroxyphenyl)-1-[4-methyl-2-(propan-2-yl)pyridin-3-yl]-4-[(2S)-2-methyl-4-(prop-2-enoyl)piperazin-1-yl]-1H,2H-pyrido[2,3-d]pyrimidin-2-one] | developed resistant proliferative clones (RPC) | developed resistant proliferative clones (RPC) | did not show a significant anti-tumor effect | – | – | – | – |
| Cn1cncc1[C@@](N)(c1ccc(Cl)cc1)c1ccc2c(c1)c(-c1cccc(Cl)c1)cc(=O)n2C [tipifarnib, (R)-6-[amino (4-chlorophenyl) (1-methyl-1H-imidazol-5-yl)methyl]-4-(3-chlorophenyl)-1-methyl-2 (1H)-quinolinone] | – | – | did not show a significant anti-tumor effect | strongly impacting cell cycle dynamics, resulting in cell death | prevented the emergence of RPC | strongly impacting cell cycle dynamics, resulting in cell death | prevented the emergence of RPC |
